{"source": "PubChem BioAssay AID328", "about": "(DTP/NCI, 2004)", "tested_on": "BDF1 mice, P388 leukemia ip, median survival T/C", "assay": "NCI In Vivo Anticancer Drug Screen. Data for tumor model P388 Leukemia (intraperitoneal) in B6D2F1 (BDF1) mice", "details": "endpoint: median survival time, higher = longer survival", "procedure,_shortened": "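Survival ratio, drug arm over vehicle arm, in mice with a transplanted tumour.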", "key": {"[1]": {"details": "dose: 200.0 mg/kg/injection, schedule: Q01DX009 (ip), vehicle: saline"}, "[2]": {"details": "dose: 400.0 mg/kg/injection, schedule: Q01DX009 (ip), vehicle: saline"}, "[3]": {"details": "dose: 50.0 mg/kg/injection, schedule: Q01DX009 (ip), vehicle: saline with Tween-80"}, "[4]": {"details": "dose: 100.0 mg/kg/injection, schedule: Q01DX009 (ip), vehicle: saline with Tween-80"}}, "note": "“And” between values parts separate entries of the source, which are not always exact repeats. Identical values can stand only once. Toxic doses and inconclusive results are not listed.", "data": [{"smiles": "CC12C=CC(=O)C=C1CCC1C2C(O)CC2(C)C1CCC2(O)C(=O)COC(=O)Cc1ccc(N(CCCl)CCCl)cc1", "note": "(centres undefined)", "values": [{"measurement": "T/C", "setting": "dose: 3.5 mg/kg/injection, schedule: Q01DX009 (ip), vehicle: saline", "value": "97 % of control"}, {"measurement": "T/C", "setting": "dose: 7.0 mg/kg/injection, schedule: Q01DX009 (ip), vehicle: saline", "value": "97 % of control"}, {"measurement": "T/C", "setting": "dose: 14.0 mg/kg/injection, schedule: Q01DX009 (ip), vehicle: saline", "value": "118 % of control"}]}, {"smiles": "CS(C)=O", "values": [{"measurement": "T/C", "setting": "[1]", "value": "100 % of control"}, {"measurement": "T/C", "setting": "[2]", "value": "100 % of control"}, {"measurement": "T/C", "setting": "dose: 600.0 mg/kg/injection, schedule: Q01DX009 (ip), vehicle: saline", "value": "100 % of control"}, {"measurement": "T/C", "setting": "dose: 800.0 mg/kg/injection, schedule: Q01DX009 (ip), vehicle: saline", "value": "95 % of control"}]}, {"smiles": "N#[N+]c1ccc2c(S(=O)(=O)O)cccc2c1O", "values": [{"measurement": "T/C", "setting": "dose: 100.0 mg/kg/injection, schedule: Q01DX009 (ip), vehicle: saline", "value": "92 % of control"}, {"measurement": "T/C", "setting": "dose: 100.0 mg/kg/injection, schedule: Q04DX003 (ip), vehicle: saline", "value": "100 % of control"}, {"measurement": "T/C", "setting": "[1]", "value": "103 % of control"}, {"measurement": "T/C", "setting": "dose: 200.0 mg/kg/injection, schedule: Q04DX003 (ip), vehicle: saline", "value": "108 % of control"}, {"measurement": "T/C", "setting": "[2]", "value": "89 % of control"}, {"measurement": "T/C", "setting": "dose: 400.0 mg/kg/injection, schedule: Q04DX003 (ip), vehicle: saline", "value": "95 % of control"}]}, {"smiles": "CC(=O)Nc1ccc(N2CCN=N2)cc1", "values": [{"measurement": "T/C", "setting": "dose: 12.5 mg/kg/injection, schedule: Q01DX009 (ip), vehicle: saline", "value": "110 % of control"}, {"measurement": "T/C", "setting": "dose: 25.0 mg/kg/injection, schedule: Q01DX009 (ip), vehicle: saline", "value": "95 % of control"}, {"measurement": "T/C", "setting": "dose: 50.0 mg/kg/injection, schedule: Q01DX009 (ip), vehicle: saline", "value": "105 % of control"}, {"measurement": "T/C", "setting": "dose: 75.0 mg/kg/injection, schedule: Q01DX009 (ip), vehicle: Klucel (hydroxypropylcellulose) (HPC)", "value": "104 % of control"}]}, {"smiles": "CC[CH2][Pb]([CH2]CC)([CH2]CC)[O]C(=O)C(F)(F)F", "values": [{"measurement": "T/C", "setting": "dose: 4.0 mg/kg/injection, schedule: Q01DX009 (ip), vehicle: Klucel (hydroxypropylcellulose) (HPC)", "value": "113 % of control"}, {"measurement": "T/C", "setting": "dose: 4.0 mg/kg/injection, schedule: Q01DX009 (ip), vehicle: saline with Tween-80", "value": "122 % of control"}, {"measurement": "T/C", "setting": "dose: 6.0 mg/kg/injection, schedule: Q01DX009 (ip), vehicle: Klucel (hydroxypropylcellulose) (HPC)", "value": "111 % of control"}, {"measurement": "T/C", "setting": "dose: 6.0 mg/kg/injection, schedule: Q01DX009 (ip), vehicle: saline with Tween-80", "value": "150 % of control"}]}, {"smiles": "S=c1nn[nH]n1-c1ccccc1.[Zn+2]", "values": [{"measurement": "T/C", "setting": "[3]", "value": "109 % of control"}, {"measurement": "T/C", "setting": "[4]", "value": "118 % of control"}]}, {"smiles": "CC1(C)CNC2OC1NCC2(C)C", "values": [{"measurement": "T/C", "setting": "dose: 100.0 mg/kg/injection, schedule: Q01DX001 (ip), vehicle: saline sonified", "value": "100 % of control"}, {"measurement": "T/C", "setting": "dose: 200.0 mg/kg/injection, schedule: Q01DX001 (ip), vehicle: saline sonified", "value": "100 % of control"}, {"measurement": "T/C", "setting": "dose: 400.0 mg/kg/injection, schedule: Q01DX001 (ip), vehicle: saline sonified", "value": "104 % of control"}]}, {"smiles": "Nc1nc(Cl)nc2c1ncn2C1OC(CO)C(O)C1O", "note": "(centres undefined)", "values": [{"measurement": "T/C", "setting": "dose: 12.5 mg/kg/injection, schedule: Q01DX010 (ip), vehicle: carboxymethylcellulose (CMC)", "value": "123 % of control"}, {"measurement": "T/C", "setting": "dose: 50.0 mg/kg/injection, schedule: Q01DX010 (ip), vehicle: carboxymethylcellulose (CMC)", "value": "161 % of control"}, {"measurement": "T/C", "setting": "dose: 100.0 mg/kg/injection, schedule: Q01DX010 (ip), vehicle: carboxymethylcellulose (CMC)", "value": "238 % of control"}, {"measurement": "T/C", "setting": "dose: 112.5 mg/kg/injection, schedule: Q01DX009 (ip), vehicle: saline", "value": "159 % of control and 191 % of control"}, {"measurement": "T/C", "setting": "dose: 168.75 mg/kg/injection, schedule: Q01DX009 (ip), vehicle: saline", "value": "177 % of control"}]}, {"smiles": "O=C(NC(=O)c1c(F)cccc1F)Nc1ccc(Br)cc1", "values": [{"measurement": "T/C", "setting": "[3]", "value": "101 % of control"}, {"measurement": "T/C", "setting": "[4]", "value": "100 % of control"}, {"measurement": "T/C", "setting": "dose: 200.0 mg/kg/injection, schedule: Q01DX009 (ip), vehicle: saline with Tween-80", "value": "96 % of control"}]}, {"smiles": "Nc1c(Cl)c(Cl)nc(C(=O)O)c1Cl", "values": [{"measurement": "T/C", "setting": "dose: 2.5 mg/kg/injection, schedule: Q01DX009 (ip), vehicle: saline", "value": "102 % of control"}, {"measurement": "T/C", "setting": "dose: 5.0 mg/kg/injection, schedule: Q01DX009 (ip), vehicle: saline", "value": "106 % of control"}, {"measurement": "T/C", "setting": "dose: 6.25 mg/kg/injection, schedule: Q01DX009 (ip), vehicle: Klucel (hydroxypropylcellulose) (HPC)", "value": "104 % of control"}, {"measurement": "T/C", "setting": "dose: 10.0 mg/kg/injection, schedule: Q01DX009 (ip), vehicle: saline", "value": "113 % of control"}, {"measurement": "T/C", "setting": "dose: 12.5 mg/kg/injection, schedule: Q01DX009 (ip), vehicle: Klucel (hydroxypropylcellulose) (HPC)", "value": "95 % of control"}, {"measurement": "T/C", "setting": "dose: 20.0 mg/kg/injection, schedule: Q01DX009 (ip), vehicle: saline", "value": "115 % of control"}, {"measurement": "T/C", "setting": "dose: 25.0 mg/kg/injection, schedule: Q01DX009 (ip), vehicle: Klucel (hydroxypropylcellulose) (HPC)", "value": "104 % of control"}, {"measurement": "T/C", "setting": "dose: 40.0 mg/kg/injection, schedule: Q01DX009 (ip), vehicle: saline", "value": "106 % of control"}, {"measurement": "T/C", "setting": "dose: 50.0 mg/kg/injection, schedule: Q01DX009 (ip), vehicle: Klucel (hydroxypropylcellulose) (HPC)", "value": "106 % of control"}, {"measurement": "T/C", "setting": "dose: 100.0 mg/kg/injection, schedule: Q01DX009 (ip), vehicle: Klucel (hydroxypropylcellulose) (HPC)", "value": "98 % of control"}]}]}
